Laboratory results: paper PMC7151704, “4-Amino-1,2,4-triazole-3-thione as a Promising Scaffold for the Inhibition of Serine and Metallo-β-Lactamases” (Pharmaceuticals, 2020)

Key:
Assay in all cases: nitrocefin hydrolysis, spectrophotometric; Ki from IC50 by Cheng-Prusoff
Format in all cases: biochemical
[1] = molecular target: T1, KPC-2 (Klebsiella pneumoniae, UniProt Q9F663)
T1 construct: recombinant, 'full-length KPC-2 enzyme'
Excerpt: nitrocefin hydrolysis, spectrophotometric; Ki from IC50 by Cheng-Prusoff on KPC-2

[2] = molecular target: T2, IMP-1 (Pseudomonas aeruginosa, UniProt Q79MP6)
T2 construct: gene blaIMP-1; codon-optimised wild type gene, pETite N-His SUMO Kan, E. coli Lemo21(DE3); His-SUMO cleaved by SUMO protease; IMAC and Superose 12

[3] = molecular target: T3, VIM-1 (Pseudomonas aeruginosa, UniProt Q9XAY4)
T3 construct: gene blaVIM; recombinant untagged, pET-24a(+) blaVIM-1 (pBPAQND2009), E. coli BL21(DE3); High Q and Superdex 75; zinc-supplemented buffers

T1 sequence (Q9F663 25-293 limits assumed): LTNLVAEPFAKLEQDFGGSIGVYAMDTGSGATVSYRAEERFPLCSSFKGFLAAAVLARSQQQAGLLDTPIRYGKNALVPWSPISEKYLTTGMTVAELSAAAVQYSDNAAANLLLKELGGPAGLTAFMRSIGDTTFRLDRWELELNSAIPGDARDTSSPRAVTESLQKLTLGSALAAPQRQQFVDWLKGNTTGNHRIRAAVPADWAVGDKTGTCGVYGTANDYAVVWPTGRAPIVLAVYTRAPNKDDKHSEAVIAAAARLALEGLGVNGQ
T2 sequence (Q79MP6 19-246 limits assumed): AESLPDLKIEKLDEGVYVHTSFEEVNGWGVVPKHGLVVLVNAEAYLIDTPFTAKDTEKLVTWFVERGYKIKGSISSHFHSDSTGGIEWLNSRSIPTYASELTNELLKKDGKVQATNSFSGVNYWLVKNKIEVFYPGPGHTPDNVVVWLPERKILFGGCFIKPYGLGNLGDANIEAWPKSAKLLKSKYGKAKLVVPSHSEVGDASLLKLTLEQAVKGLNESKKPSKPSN

| SMILES | Ki [1] [µM] | Ki [2] [µM] | Ki [3] [µM] |
| --- | --- | --- | --- |
| Sc1nncn1/N=C/c1ccc(Br)cc1 [2b, 4-((4-bromobenzylidene)amino)-2,4-dihydro-3H-1,2,4-triazole-3-thione] | 158 ± 7 | 285 ± 13 | 58 ± 2 |
| S=c1[nH]ncn1/N=C/c1c[nH]c2ccccc12 [2g, 4-(((1H-indol-3-yl)methylene)amino)-2,4-dihydro-3H-1,2,4-triazole-3-thione] | 139 ± 4 | 104 ± 4 | 95 ± 3 |
| CCN(CC)c1ccc(CNn2cn[nH]c2=S)cc1 [1d, 4-((4-(diethylamino)benzyl)amino)-2,4-dihydro-3H-1,2,4-triazole-3-thione] | 263 ± 13 | 173 ± 6 | 224 ± 11 |
| S=c1[nH]ncn1NCc1ccc2c(c1)OCO2 [1f, 4-((benzo[d][1,3]dioxol-5-ylmethyl)amino)-2,4-dihydro-3H-1,2,4-triazole-3-thione] | 138 ± 3 | 125 ± 5 | 120 ± 4 |
